The values below come from article PMC9136578 (Acta Pharmaceutica Sinica. B, 2021).

The target in this assay is human GLP-1R (Homo sapiens, UniProt P43220). Kind of assay: CRE-driven luciferase reporter. It is filed as cell-based. On the technique in general: In a reporter assay the amount or activity of a reporter protein is the signal.

pEC50: −log10 of the molar value. Numbered stars: 1 amine (or outer) side, 2 acyl side, 3 side chain; on linkers, the order of the positions; unused ones are H or OH. Square brackets hold non-standard residues; d marks the D form. Side chains are listed from the residue outwards. Peptide text beside a SMILES is read from it. * marks the point of attachment. C18 diacid = O=C(O)CCCCCCCCCCCCCCCCC(=O)*; γGlu = O=C(O)[C@H](CCC(=O)[*:2])N[*:1]; PEG2 = NCCOCCOCCC(=O)O

Sequence of human GLP-1R (P43220 24-463): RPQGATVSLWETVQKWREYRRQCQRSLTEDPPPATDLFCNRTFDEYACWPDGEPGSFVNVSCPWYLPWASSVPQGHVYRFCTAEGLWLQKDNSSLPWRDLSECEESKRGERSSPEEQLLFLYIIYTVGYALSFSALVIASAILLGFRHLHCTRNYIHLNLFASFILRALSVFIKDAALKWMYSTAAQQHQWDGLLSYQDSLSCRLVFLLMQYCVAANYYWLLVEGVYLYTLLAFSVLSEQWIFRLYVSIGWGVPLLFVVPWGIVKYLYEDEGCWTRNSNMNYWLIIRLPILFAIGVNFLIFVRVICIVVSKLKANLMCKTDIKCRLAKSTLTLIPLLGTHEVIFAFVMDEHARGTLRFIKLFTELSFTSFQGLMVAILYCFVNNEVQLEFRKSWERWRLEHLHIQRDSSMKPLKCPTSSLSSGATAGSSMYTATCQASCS

As usually defined, the pEC50 is −log10 of the EC50, conventionally taken in molar units. The compound `CC(C)C[C@H](NC(=O)[C@H](CC(C)C)NC(=O)[C@H](Cc1c[nH]c2ccccc12)NC(=O)[C@H](CCC(=O)O)NC(=O)[C@@H](NC(=O)[C@H](Cc1ccccc1)NC(=O)[C@H](CC(=O)O)NC(=O)[C@H](Cc1c[nH]cn1)NC(=O)[C@H](C)NC(=O)[C@H](C)NC(=O)[C@H](CCCCNC(=O)CCOCCOCCNC(=O)CCOCCOCCNC(=O)CC[C@H](NC(=O)CCCCCCCCCCCCCCCCC(=O)O)C(=O)O)NC(=O)[C@H](CO)NC(=O)[C@H](CC(=O)O)NC(=O)[C@H](CC(C)C)NC(=O)[C@H](Cc1ccc(O)cc1)NC(=O)[C@H](CCCCN)NC(=O)[C@H](CO)NC(=O)[C@H](Cc1ccc(O)cc1)NC(=O)[C@H](CC(=O)O)NC(=O)[C@H](CO)NC(=O)[C@@H](NC(=O)[C@H](Cc1ccccc1)NC(=O)[C@@H](NC(=O)CNC(=O)[C@H](CCC(N)=O)NC(=O)[C@@H](CO)NC(=O)[C@@H](N)Cc1c[nH]cn1)[C@@H](C)O)[C@@H](C)O)C(C)C)C(=O)N[C@@H](CCCNC(=N)N)C(=O)N[C@@H](C)C(N)=O` [TA002] (H-H[dS]QGTFTSDYSKYLDSK([PEG2-PEG2-γGlu-C18 diacid])AAHDFVEWLLRA-NH2) showed a pEC50 of 9.49.

Compound `CCCCCCCCCCCCCCCCCC(=O)NCCOCCOCCC(=O)NCCOCCOCCC(=O)NCCCC[C@H](NC(=O)[C@H](CC(=O)O)NC(=O)[C@H](CO)NC(=O)[C@@H](NC(=O)[C@H](Cc1ccccc1)NC(=O)[C@@H](NC(=O)CNC(=O)[C@H](CCC(N)=O)NC(=O)[C@@H](CO)NC(=O)[C@@H](N)Cc1c[nH]cn1)[C@@H](C)O)[C@@H](C)O)C(=O)N[C@@H](CO)C(=O)N[C@@H](CCCCN)C(=O)N[C@@H](Cc1ccc(OS(=O)(=O)F)cc1)C(=O)N[C@@H](CC(C)C)C(=O)N[C@@H](CC(=O)O)C(=O)NC(C)(C)C(=O)N[C@@H](CCCNC(=N)N)C(=O)N[C@@H](CCCNC(=N)N)C(=O)N[C@@H](C)C(=O)N[C@@H](CCC(N)=O)C(=O)N[C@@H](CC(=O)O)C(=O)N[C@@H](Cc1ccccc1)C(=O)N[C@H](C(=O)N[C@@H](CCC(N)=O)C(=O)N[C@@H](Cc1c[nH]c2ccccc12)C(=O)N[C@@H](CC(C)C)C(=O)N[C@@H](CCSC)C(=O)N[C@@H](CC(N)=O)C(=O)N[C@H](C(=O)NCC(=O)NCC(=O)N1CCC[C@H]1C(=O)N[C@@H](CO)C(=O)N[C@@H](CO)C(=O)NCC(=O)N[C@@H](C)C(=O)N1CCC[C@H]1C(=O)N1CCC[C@H]1C(=O)N1CCC[C@H]1C(=O)N[C@@H](CO)C(N)=O)[C@@H](C)O)C(C)C` [TA006] showed a negative logarithm of the EC50 (pEC50) of 8.60.

Take `CC(C)C[C@H](NC(=O)[C@H](CC(C)C)NC(=O)[C@H](Cc1c[nH]c2ccccc12)NC(=O)[C@H](CCC(=O)O)NC(=O)[C@@H](NC(=O)[C@H](Cc1ccccc1)NC(=O)[C@H](CC(=O)O)NC(=O)[C@H](Cc1c[nH]cn1)NC(=O)[C@H](C)NC(=O)[C@H](C)NC(=O)[C@H](CCCCNC(=O)CCOCCOCCNC(=O)CCOCCOCCNC(=O)CC[C@H](NC(=O)CCCCCCCCCCCCCCCCC(=O)O)C(=O)O)NC(=O)[C@H](CO)NC(=O)[C@H](CC(=O)O)NC(=O)[C@H](CC(C)C)NC(=O)[C@H](Cc1ccc(O)cc1)NC(=O)[C@H](CCCCN)NC(=O)[C@H](CO)NC(=O)[C@H](Cc1ccc(O)cc1)NC(=O)[C@H](CC(=O)O)NC(=O)[C@H](CO)NC(=O)[C@@H](NC(=O)[C@H](Cc1ccccc1)NC(=O)[C@@H](NC(=O)CNC(=O)[C@H](CCC(N)=O)NC(=O)[C@@H](CO)NC(=O)[C@@H](N)Cc1c[nH]cn1)[C@@H](C)O)[C@@H](C)O)C(C)C)C(=O)N[C@@H](CC(N)=O)C(=O)NCC(=O)NCC(=O)N1CCC[C@H]1C(=O)N[C@@H](CO)C(=O)N[C@@H](CO)C(=O)NCC(=O)N[C@@H](C)C(=O)N1CCC[C@H]1C(=O)N1CCC[C@H]1C(=O)N1CCC[C@H]1C(=O)N[C@@H](CO)C(N)=O` [TA004] (H-H[dS]QGTFTSDYSKYLDSK([PEG2-PEG2-γGlu-C18 diacid])AAHDFVEWLLNGGPSSGAPPPS-NH2): the negative-log EC50 (pEC50) is 9.72.
